Patent US7763602B2, “Pyrrole derivatives as antimycobacterial compounds” (priority 2002, dated 2010)
In brackets after ≈: the same amount, converted by molar mass. Where two headings read alike, the source gives them in different places.

What was measured:
[1] = test system: M. tuberculosis strain 103471; conditions: literature values; cited from earlier work
[2] = test system: M. tuberculosis H37Rv ATCC 27294; assay: Murine model of pulmonary tuberculosis, treated 01 day post-infection; conditions: for Mean Log10 No. of CFU Lung / Mean Log10 No. of CFU Spleen: 5 day/week for 4 week; for Mean Log10 no. of reduction Lung / Mean Log10 no. of reduction Spleen / Mean Log10 No. of reduction Lung / Mean Log10 No. of reduction Spleen: difference from early controls
[3] = test system: M. avium-intracellulare complex; assay: In vitro agar dilution assay (MIC), M. avium-intracellulare complex; assay type: cell-based; conditions: Mycobacterium avium-intracellulare; Table II; 13 strains; read-out: MIC (μg/ml) M. avium-intracellulare complex (n = 13)
M. kansasii = assay: In vitro agar dilution assay (MIC), M. kansasii; assay type: cell-based; conditions: Mycobacterium kansasii, read-out: MIC (μg/ml) M. kansasii (n = 2)
M. fortuitum = assay: In vitro agar dilution assay (MIC), M. fortuitum; assay type: cell-based, Mycobacterium fortuitum; conditions: Mycolicibacterium fortuitum, read-out: MIC (μg/ml) M. fortuitum (n = 8)
M. tuberculosis 27294 = assay: In vitro agar dilution assay (MIC), reference strain; assay type: cell-based, Mycobacterium tuberculosis; conditions: Mycobacterium tuberculosis, 27294, Table I, read-out: MIC (μg/ml) against M. tuberculosis-27294
[4] = test system: M. tuberculosis clinical isolates, sensitive; assay: microbe, parasite or virus in culture; assay type: cell-based, Mycobacterium tuberculosis; conditions: Mycobacterium tuberculosis
[5] = test system: M. tuberculosis H37Rv ATCC 27294; assay: In vitro growth inhibition assay, BACTEC 460 TB system; assay type: cell-based, Mycobacterium tuberculosis; set-up: key: +: If ΔGI of test vial is less than that of the control vial the culture was sensitive to the test compound; conditions: final concentration 6.25 μg/ml
[6] = Acute toxicity study in mice; assay type: in vivo, Swiss albino mice
Description: Compound No. 3 of formula (I) was administered, as a single oral dose, in Swiss albino mice. Two dose levels of 500 and 2000 mg/kg were employed. […] Therefore LD0 was >2000 mg/kg by oral route in mice. […] Similarly in compound No. 12 of Formula I, LD0 was >500 mg/kg by oral route in mice.

[7] = mice, oral route; cited from earlier work
[8] = test system: M. tuberculosis H37Rv ATCC 27294; assay: Murine model of pulmonary tuberculosis, treated 14 days post-infection; conditions: Table IV; for Mean Log10 No. of CFU Lung / Mean Log10 No. of CFU Spleen: 5 day/week for 4 week, treated 14 days post-infection; for Mean Log10 no. of reduction Lung / Mean Log10 no. of reduction Spleen: difference from early controls
[9] = Table III, 12.5 mg/kg gavage, treatment from 1 day after infection
[10] = Table III, 25 mg/kg gavage, treatment from 1 day after infection
[11] = Table III, 50 mg/kg gavage, treatment from 1 day after infection
[12] = read-out: MIC (μg/ml) M. tuberculosis Sensitive (n = 17)
[13] = read-out: MIC (μg/ml) against Clinical isolates Sensitive
[14] = Table VI, 12.5 mg/kg, treated 01 day post-infection
[15] = Table VI, 25 mg/kg, treated 01 day post-infection
[16] = Table VI, 50 mg/kg, treated 01 day post-infection

**Q.** With Cc1c(CN2CCN(C)CC2)cc(-c2ccc(Cl)cc2)n1-c1ccc(Cl)cc1 [BM 212] as the compound, how does the “MIC value (μg/ml) against the M. tuberculosis strain 103471” value [1] read?
**A.** 0.70 µg/mL (≈ 1.69 µM)

**Q.** What does the source list for Cc1c(CN2CCN(c3cccc(C(F)(F)F)c3)CC2)cc(-c2ccc(Cl)cc2)n1-c1ccc(Cl)cc1 [Compound No. 3, 1-{[1,5-bis(4-chlorophenyl)-2-methylpyrrol-3-yl]methyl}-4-(3-trifluoromethylphenyl)piperazine]?
**A.** Mean Log10 No. of CFU Lung [2, 9]: 2.63; Mean Log10 No. of CFU Spleen [2, 9]: 2.6; Mean Log10 no. of reduction Lung ([2]; Table III, 12.5 mg/kg): 1.85; Mean Log10 no. of reduction Spleen ([2]; Table III, 12.5 mg/kg): 2.03; Mean Log10 No. of CFU Lung [2, 10]: 2.13; Mean Log10 No. of CFU Spleen [2, 10]: 2.07; Mean Log10 no. of reduction Lung ([2]; Table III, 25 mg/kg): 2.35; Mean Log10 no. of reduction Spleen ([2]; Table III, 25 mg/kg): 2.29; Mean Log10 No. of CFU Lung [2, 11]: 1.97; Mean Log10 No. of CFU Spleen [2, 11]: 1.94; Mean Log10 no. of reduction Lung ([2]; Table III, 50 mg/kg): 2.51; Mean Log10 no. of reduction Spleen ([2]; Table III, 50 mg/kg): 2.64; MIC [3]: 4 to 8 µg/mL (≈ 7.35 to 14.7 µM); MIC (M. kansasii; Table II, 2 strains): 4 µg/mL (≈ 7.35 µM); MIC (M. fortuitum; Table II, 8 strains): 4 to 8 µg/mL (≈ 7.35 to 14.7 µM); MIC (M. tuberculosis 27294): 0.125 µg/mL (≈ 0.23 µM); MIC [4, 12]: 0.125 to 0.25 µg/mL (≈ 0.23 to 0.459 µM); MIC [4, 13]: 0.125 to 0.25 µg/mL (≈ 0.23 to 0.459 µM); Growth inhibition of M. tuberculosis 27294 [5]: +; Clinical symptoms or mortality ([6]; single oral dose 500 and 2000 mg/kg, Swiss albino mice, observed for 14 days): No clinical symptom or mortality was observed; Pathological changes in organs ([6]; single oral dose 500 and 2000 mg/kg, mice sacrificed on day 15): no pathological changes were seen in any organ; LD0 ([6]; single oral dose, mice, observed for 14 days): > 2000 mg/kg

**Q.** For NNC(=O)c1ccncc1 [Isoniazid, reference compound], which “Mean Log10 No. of CFU Lung” value [2, 9] is on record?
**A.** 2.93

**Q.** What about the “Mean Log10 No. of CFU Spleen” value [2, 9] of the same compound?
**A.** 2.91

**Q.** What about the “Mean Log10 no. of reduction Lung” value ([2]; Table III, 12.5 mg/kg) of the same compound?
**A.** 1.55

**Q.** And the “Mean Log10 no. of reduction Spleen” value ([2]; Table III, 12.5 mg/kg)?
**A.** 1.72

**Q.** What about the “Mean Log10 No. of CFU Lung” value [2, 10] of the same compound?
**A.** 2.16

**Q.** And the “Mean Log10 No. of CFU Spleen” value [2, 10]?
**A.** 2.21

**Q.** And the “Mean Log10 no. of reduction Lung” value ([2]; Table III, 25 mg/kg)?
**A.** 2.36

**Q.** And the “Mean Log10 no. of reduction Spleen” value ([2]; Table III, 25 mg/kg)?
**A.** 2.27

**Q.** What about the “Mean Log10 No. of CFU Lung” value [2, 11] of the same compound?
**A.** 1.95

**Q.** What about the “Mean Log10 No. of CFU Spleen” value [2, 11] of the same compound?
**A.** 2.12

**Q.** What about the “Mean Log10 no. of reduction Lung” value ([2]; Table III, 50 mg/kg) of the same compound?
**A.** 2.53

**Q.** And the “Mean Log10 no. of reduction Spleen” value ([2]; Table III, 50 mg/kg)?
**A.** 2.51

**Q.** And the “Mean Log10 No. of CFU Lung” value [2, 14]?
**A.** 2.89 ± 0.27

**Q.** And the “Mean Log10 No. of CFU Spleen” value [2, 14]?
**A.** 2.91 ± 0.42

**Q.** What about the “Mean Log10 No. of reduction Lung” value ([2]; Table VI, 12.5 mg/kg) of the same compound?
**A.** 1.68

**Q.** And the “Mean Log10 No. of reduction Spleen” value ([2]; Table VI, 12.5 mg/kg)?
**A.** 1.78

**Q.** And the “Mean Log10 No. of CFU Lung” value [2, 15]?
**A.** 2.23 ± 0.33

**Q.** What about the “Mean Log10 No. of CFU Spleen” value [2, 15] of the same compound?
**A.** 2.21 ± 0.44

**Q.** What about the “Mean Log10 No. of reduction Lung” value ([2]; Table VI, 25 mg/kg) of the same compound?
**A.** 2.34

**Q.** What about the “Mean Log10 No. of reduction Spleen” value ([2]; Table VI, 25 mg/kg) of the same compound?
**A.** 2.48

**Q.** And the “Mean Log10 No. of CFU Lung” value [2, 16]?
**A.** 2.02 ± 0.31

**Q.** What about the “Mean Log10 No. of CFU Spleen” value [2, 16] of the same compound?
**A.** 2.07 ± 0.33

**Q.** And the “Mean Log10 No. of reduction Lung” value ([2]; Table VI, 50 mg/kg)?
**A.** 2.55

**Q.** And the “Mean Log10 No. of reduction Spleen” value ([2]; Table VI, 50 mg/kg)?
**A.** 2.62

**Q.** What about the MIC (M. kansasii) of the same compound?
**A.** > 16 µg/mL

**Q.** And the “MIC value (μg/ml) against the M. tuberculosis strain 103471” value [1]?
**A.** 0.25 µg/mL (≈ 1.82 µM)

**Q.** And the MIC (M. fortuitum)?
**A.** > 16 µg/mL

**Q.** What about the MIC (M. tuberculosis 27294) of the same compound?
**A.** 0.25 µg/mL (≈ 1.82 µM)

**Q.** And the “Reported LD50” value [7]?
**A.** 139 mg/kg

**Q.** What about the MIC [4, 12] of the same compound?
**A.** 0.25 µg/mL (≈ 1.82 µM)

**Q.** And the MIC [4, 13]?
**A.** 0.125 to 0.25 µg/mL (≈ 0.911 to 1.82 µM)

**Q.** And the “Growth inhibition of M. tuberculosis 27294” value [5]?
**A.** +

**Q.** And the “Mean Log10 No. of CFU Lung” value ([8]; 12.5 mg/kg)?
**A.** 4.56 ± 0.24

**Q.** What about the “Mean Log10 No. of CFU Spleen” value ([8]; 12.5 mg/kg) of the same compound?
**A.** 4.93 ± 0.42

**Q.** What about the “Mean Log10 no. of reduction Lung” value ([8]; 12.5 mg/kg) of the same compound?
**A.** 1.03

**Q.** And the “Mean Log10 no. of reduction Spleen” value ([8]; 12.5 mg/kg)?
**A.** 1.02

**Q.** And the “Mean Log10 No. of CFU Lung” value ([8]; 25 mg/kg)?
**A.** 3.19 ± 0.6

**Q.** What about the “Mean Log10 No. of CFU Spleen” value ([8]; 25 mg/kg) of the same compound?
**A.** 3.08 ± 0.44

**Q.** And the “Mean Log10 no. of reduction Lung” value ([8]; 25 mg/kg)?
**A.** 2.4

**Q.** And the “Mean Log10 no. of reduction Spleen” value ([8]; 25 mg/kg)?
**A.** 2.87

**Q.** What about the “Mean Log10 No. of CFU Lung” value ([8]; 50 mg/kg) of the same compound?
**A.** 2.97 ± 0.46

**Q.** What about the “Mean Log10 No. of CFU Spleen” value ([8]; 50 mg/kg) of the same compound?
**A.** 2.89 ± 0.27

**Q.** What about the “Mean Log10 no. of reduction Lung” value ([8]; 50 mg/kg) of the same compound?
**A.** 2.62

**Q.** What about the “Mean Log10 no. of reduction Spleen” value ([8]; 50 mg/kg) of the same compound?
**A.** 3.06
